Measured values: paper PMC11537054, “A conserved two-component system senses intracellular iron levels and regulates redox balance in Mycobacterium spp” (Microbiology Spectrum, 2024)

Biological target: PdtaS (PdtaS-eGFP) (Mycobacterium tuberculosis, UniProt P9WGL5)
Assay: biochemical

Chain of PdtaS (PdtaS-eGFP) (P9WGL5 whole entry): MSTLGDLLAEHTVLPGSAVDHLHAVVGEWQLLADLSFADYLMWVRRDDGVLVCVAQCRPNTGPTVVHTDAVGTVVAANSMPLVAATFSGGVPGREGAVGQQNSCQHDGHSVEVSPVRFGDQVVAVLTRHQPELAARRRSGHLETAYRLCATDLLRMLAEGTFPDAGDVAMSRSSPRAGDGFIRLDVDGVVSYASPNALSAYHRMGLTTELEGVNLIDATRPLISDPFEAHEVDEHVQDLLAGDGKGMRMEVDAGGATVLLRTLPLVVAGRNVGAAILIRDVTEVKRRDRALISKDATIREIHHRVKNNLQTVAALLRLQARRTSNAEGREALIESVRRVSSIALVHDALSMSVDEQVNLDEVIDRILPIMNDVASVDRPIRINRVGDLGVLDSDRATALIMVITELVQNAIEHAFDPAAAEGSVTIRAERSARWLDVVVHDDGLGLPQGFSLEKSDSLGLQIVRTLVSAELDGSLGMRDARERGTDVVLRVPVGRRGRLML

How did the Kd turn out when `C=CC1=C(C)C2=Cc3c(C=C)c(C)c4[n]3[Fe]([Cl])[n]3c(c(C)c(CCC(=O)O)c3=CC3=NC(=C4)C(C)=C3CCC(=O)O)=CC1=N2` [hemin] was run?
Its Kd is roughly 17.2 nM.
